Test results published in patent US20120101169A1, “METHODS OF PROVIDING ANTICOAGULATION EFFECTS IN SUBJECTS” (Penwest Pharmaceuticals Co., priority 2010, published 2012).
Where two headings read alike, the source gives them in different places. Marks after values point to notes of the source that are not given here.

What was measured:
[1] = Safety and tolerability of (R,R,R) α-tocopherol quinone in healthy male and female subjects (Example 1); conditions: high and moderate fat meal
Experimental: The safety and tolerability of (R,R,R) α-tocopherol quinone was tested in healthy male and female subjects. Twelve subjects were divided into two groups of six subjects each (Groups A and B). Group A was administered 1.5 g of a (R,R,R) α-tocopherol quinone twice a day for one day. Group B was administered 1.0 g of (R,R,R) α-tocopherol quinone three times a day for 1 day. Both groups of subjects were fed under high and moderate fat meal content.

[2] = Single-dose ascending-dose pharmacokinetics of ATQ in healthy volunteers (Example 4); conditions: for CL/F: fed conditions, mean
Experimental: Healthy adult male subjects were enrolled into 1 of 6 cohorts of 10 subjects, and randomly assigned to receive either alpha-tocopherolquinone (ATQ) (8 subjects) in olive oil or placebo (2 subjects). Safety, tolerability and PK characteristics of ATQ were assessed under fasted conditions (low dose of 0.25 g and 0.5 g) and fed conditions (range of 0.5 g to 6.0 g), during co-administration with 400 IU vitamin E (2.0 g), and following a 2.2 g total dose administered in 3 equally-divided doses of 0.735 g, and 7 hours apart. There was a 2-week interval between dosing of cohorts while a medical review of the data collected on the preceding dose was conducted. Blood samples for the measurement of ATQ concentration were collected pre-dose and up to 168 hours following dose administration. All plasma ATQ concentrations were determined using a GLP validated bioanalytical method. Blood samples for the measurement of vitamin E concentrations were collected prior to and at 24 hours following dose administration (Cohorts 1, 2, and 3) and serially for up to 24 hours in Cohorts 4 through 6 except for Cohort 4, Period 2 (vitamin E co-administration) where samples were collected for up to 96 hours. Urine was collected for the measurement of ATQ and its metabolites in pooled intervals up to 72 hours post-dose for all cohorts.

[3] = Multiple ascending dose pharmacokinetics of ATQ (Example 5 Part 2); assay type: in vivo, human; conditions: for Cmax / AUC: both sexes, human, plasma, oral; for AUC: read-out: AUC(0-tau, 24)
Experimental: The study was conducted in 2 parts. Part 1 was conducted in healthy male subjects only while Part 2 was conducted in healthy male and female subjects. The intent of this study part was to optimize the dosage regimen and diet for the multiple-dose safety and tolerance Part 2 of the study. All plasma ATQ concentrations were determined using a GLP validated bioanalytical method. ATQ was administered as an oral solution in oil (0.49 g/mL). The placebo solution consisted of olive oil alone.
Part 2 was conducted as a multiple-dose dose-escalation design. […] Dose administration was subsequently switched to a BID regimen administered for 14 days.
Part 2 was conducted as a multiple-dose dose-escalation design in male and female subjects. None of the subjects who participated in Part 1 of the study were eligible to participate in Part 2. A total of 32 subjects were enrolled in Part 2. Twenty (20) subjects received ATQ or placebo for one week in a single-blind, randomized, placebo-controlled design: Cohort 1 […] low dose (1 g/day as 0.33 g TID) and Cohort 2 […] midrange dose (2 g/day as 0.67 g TID). In each cohort, 8 subjects received ATQ and 2 subjects received placebo under fed conditions. An additional 12 subjects were subsequently enrolled into 2 additional cohorts of 6 subjects each. The 12 subjects were randomized to receive one of the two following ATQ doses: Cohort 3 (N=6) low dose (0.5 g BID) and Cohort 4 (N=6) intermediate dose (0.75 g BID) administered for 14 days with a standard meal. All subjects participating in Cohorts 3 and 4 received ATQ; there was no placebo arm.
For Part 2, serial blood samples for the measurement of the plasma levels of ATQ were collected in Cohorts 1 and 2 as part of a 3 times daily regimen prior to and over the first 6-hour dosing interval following administration of the first dose on Day 1, prior to the morning dose on Days 3, 5, and 6, over the 6-hour and 12-hour dosing intervals following the afternoon and evening dose, respectively, and up to 48 hours after the final (morning) dose on Day 7.
In Cohorts 3 and 4, serial blood samples for the measurement of the plasma levels of ATQ were collected for the twice-daily regimen prior to and over the 12-hour dosing interval following the first dose administration on Day 1, prior to the morning dose on Days 4, 7, 10, 13, and 14, and over the 12-hour dosing interval after the final (morning) dose on Day 14. Multiple-dose PK data over the dose range of 1.0-g/day (BID and TID), 1.5-g/day (BID), and 2.0-g/day (TID) were generated in this study.
Part 2 multiple-dose results are provided for Day 7 (Cohorts 1 and 2) or Day 14 unless otherwise indicated. Parameters designated with the term 24 refer to pharmacokinetic parameters derived for a 24-hour TID or BID dosing period.

factor V = experiment: Extended coagulation biomarker panel: factor V; parameters: species or system human; conditions: in vivo
Source text: In Part 1 the extended panel was collected at screening and at check-in (Day −1) and Day 2 of each period unless the study results warranted a different sampling schedule. In Part 2, the same of the exploratory coagulation biomarkers were collected at screening, check-in, Day 4, and Day 8 in Cohorts 1 and 2, or at check-in, Day 7, and Day 14 in Cohorts 3 and 4 with the following exception: in Cohorts 3 and 4, platelet function was collected at check-in only or when medically indicated.

[4] = 1-g/day (0.33 g TID), mean, N = 8
[5] = 1-g/day (0.5 g BID), morning dose data, N = 5
[6] = 1.5-g/day (0.75 g BID), morning dose data, N = 6
[7] = 2-g/day (0.67 g TID), mean, N = 7

CC1=C(C)C(=O)C(CC[C@](C)(O)CCC[C@H](C)CCC[C@H](C)CCCC(C)C)=C(C)C1=O [ATQ, alpha-tocopherolquinone]
Safety and tolerability (side effects) ([1]; Group A: 1.5 g twice a day for one day): no side effects were observed
Safety and tolerability (side effects) ([1]; Group B: 1.0 g three times a day for 1 day): no side effects were observed
Increase in bioavailability with a high-fat meal ([2]; 0.5 g with high-fat meal versus fasted): over 60 fold
ATQ concentration versus time profile with and without vitamin E ([2]; 2 g QD dose, with and without 400-IU of vitamin E): essentially unchanged
CL/F ([2]; 2.2 g (0.735 g TID), N = 8): 22.731 L/h
Effect of dividing the dose on ATQ bioavailability ([2]; 2.2 g as 3 doses of 0.735 g 7 hours apart rather than a single unit): significantly increased ATQ bioavailability
Baseline-adjusted ATQ concentration at 24 hours as share of Cmax ([2]; 24 hours post-dose): less than 1%
Tmax ([2]; male, human, plasma, oral): 6 h
Time for ATQ concentrations to return to endogenous baseline levels ([2]; post-dose): ≤ 24 h
CL/F ([2]; single 0.5 g dose, N = 6): 25.910[b] L/h
CL/F ([2]; single 1.0 g dose, N = 7): 15.950[c] L/h
CL/F ([2]; single 2.0 g dose, N = 7): 33.404[c] L/h
CL/F ([2]; single 6.0 g dose, N = 6): 62.824[b] L/h
Dose proportionality of absorption ([2]; single doses 0.5 g to 6.0 g after high-fat breakfast): dose proportional between 0.5 g and 1 g but was blunted at higher doses
Absorption under fasted conditions ([2]; single oral doses 0.25 g and 0.5 g, fasted): poorly absorbed
Unchanged ATQ in urine samples ([2]; urine collected up to 72 hours post-dose): not detected
Time for trough concentrations to reach steady state ([3]; 0.33 g TID): ≤ 3 days
Time for trough concentrations to reach steady state ([3]; 0.5 g BID): ≤ 4 days
Time for trough concentrations to reach steady state ([3]; 0.67 g TID): ≤ 3 days
Time for trough concentrations to reach steady state ([3]; 0.75 g BID): 13 days
Cmin ([3]; 1-g/day (0.33 g TID), Day 7, mean, N = 8): 583 ng/mL
CLpo, 24 ([3]; 1-g/day (0.33 g TID), daily dose divided by mean AUC(0-tau, 24)): 24.2 [c] L/h
Cavg, 24 h [3, 4]: 1730 ng/mL
Fluct24 h [3, 4]: 189%
TimeHgh(0-24) (time above the pharmacologically relevant concentration of 0.5 μg/mL) ([3]; 1-g/day (0.33 g TID), median, N = 8): 23.80 h
TimeHgh(0-24) (time above the pharmacologically relevant concentration of 0.5 μg/mL) ([3]; 1-g/day (0.5 g BID), 2 times the 0-12 hour morning dose value, N = 5): 19.68 [e] h
Cmin ([3]; 1-g/day (0.5 g BID), Day 14, mean, N = 5): 308 ng/mL
CLpo, 24 ([3]; 1-g/day (0.5 g BID), morning dose data, Day 14, N = 5): 57.5 L/h
Cavg, 24 h [3, 5]: 1040 ng/mL
Fluct24 h [3, 5]: 145%
Estimated daily AUC higher with TID than BID ([3]; 1-g/day: 0.33 g TID versus 0.5 g BID): approximately 66%
TimeHgh(0-24) (time above the pharmacologically relevant concentration of 0.5 μg/mL) ([3]; 1.5-g/day (0.75 g BID), 2 times the 0-12 hour morning dose value, N = 6): 21.84 [e] h
Cmin ([3]; 1.5-g/day (0.75 g BID), Day 14, mean, N = 6): 443 ng/mL
CLpo, 24 ([3]; 1.5-g/day (0.75 g BID), morning dose data, Day 14, N = 6): 53.5 L/h
Cavg, 24 h [3, 6]: 1380 ng/mL
Fluct24 h [3, 6]: 147%
Cmin ([3]; 2-g/day (0.67 g TID), Day 7, mean, N = 7): 1220 ng/mL
CLpo, 24 ([3]; 2-g/day (0.67 g TID), daily dose divided by mean AUC(0-tau, 24)): 18.5 [c] L/h
Cavg, 24 h [3, 7]: 4480 ng/mL
Fluct24 h [3, 7]: 177%
TimeHgh(0-24) (time above the pharmacologically relevant concentration of 0.5 μg/mL) ([3]; 2-g/day (0.67 g TID), median, N = 7): 23.87 h
Accumulation of Cmax ([3]; BID administration): did not accumulate
Cmax ([3]; 0.33 g, 1-g/day (0.33 g TID), Day 7, N = 8, read-out: Cmax last dose): 2400 ng/mL
Cmax ([3]; 0.33 g, 1-g/day (0.33 g TID), highest Cmax of the 3 serial TID profiles, Day 6 lunch, N = 8, read-out: Cmax): 3530 ng/mL
Cmax ([3]; 0.5 g, 1-g/day (0.5 g BID), Day 14, N = 5, read-out: Cmax last dose): 1890 ng/mL
Cmax ([3]; 0.5 g, 1-g/day (0.5 g BID), Day 14 morning dose, N = 5, read-out: Cmax): 1890 ng/mL
Cmax ([3]; 0.67 g, 2-g/day (0.67 g TID), Day 7, N = 7, read-out: Cmax last dose): 4280 ng/mL
Cmax ([3]; 0.67 g, 2-g/day (0.67 g TID), highest Cmax of the 3 serial TID profiles, Day 6 dinner, N = 7, read-out: Cmax): 9000 ng/mL
AUC ([3]; 0.75 g, 1.5-g/day (0.75 g BID), 2 times the 0-12 hour morning dose value, N = 6): 33200 ng·h/mL
Cmax ([3]; 0.75 g, 1.5-g/day (0.75 g BID), Day 14, N = 6, read-out: Cmax last dose): 2540 ng/mL
Cmax ([3]; 0.75 g, 1.5-g/day (0.75 g BID), Day 14 morning dose, N = 6, read-out: Cmax): 2540 ng/mL
AUC ([3]; 1 g/day, 1-g/day (0.33 g TID), mean, N = 8): 41400 ng·h/mL
AUC ([3]; 1 g/day, 1-g/day (0.5 g BID), 2 times the 0-12 hour morning dose value, N = 5): 25000 ng·h/mL
AUC ([3]; 2 g/day, 2-g/day (0.67 g TID), mean, N = 7): 108000 ng·h/mL
Maximum concentrations higher with TID than BID ([3]; following the final morning dose, similar doses): approximately 27%
Dose proportionality of exposure following multiple-dose administration ([3]; within TID (2-fold) or BID (1.5-fold) dose range): approximately proportional increases
Effect on the activity of factor V (factor V): did not appear to affect
